Laboratory results as given in ChEMBL document CHEMBL1151896, “3D QSAR of novel estrogen-RGD peptide conjugates: getting insight into structural dependence of anti-osteoporosis activity and side effect of estrogen in ERT” (Bioorg Med Chem, 2009).
Peptide text beside a SMILES is read from it. * marks the point of attachment. Succinyl(O17-estradiol) = C[C@]12CC[C@@H]3c4ccc(O)cc4CC[C@H]3[C@@H]1CC[C@@H]2OC(=O)CCC(=O)*; Acetyl(estradiol-3-yloxy) = C[C@]12CC[C@@H]3c4ccc(OCC(=O)*)cc4CC[C@H]3[C@@H]1CC[C@@H]2O; X1 = C[C@]12CC[C@@H]3c4ccc(OCC(=O)*)cc4CC[C@H]3[C@@H]1CCC2=O

Assays:
Mus musculus [1] = assay: Antiosteoporosis activity against ovariectomized ICR mouse assessed as serum calcium level at 110.3 nmol/kg, po after 30 mins; type: functional
Mus musculus [2] = assay: Toxicity in ovariectomized ICR mouse assessed as effect on body weight at 110.3 nmol/kg, po after 4 weeks; type: organism-based; settings: in vivo, 672 h
Mus musculus [3] = assay: Toxicity in ovariectomized ICR mouse assessed as effect on spleen weight at 110.3 nmol/kg, po after 4 weeks; type: organism-based; settings: in vivo, 672 h
Mus musculus [4] = assay: Antiosteoporosis activity against ovariectomized ICR mouse assessed as dry femur weight at 110.3 nmol/kg, po after 30 mins; type: functional
Mus musculus [5] = assay: Antiosteoporosis activity against ovariectomized ICR mouse assessed as femur ash weight at 110.3 nmol/kg, po after 30 mins; type: functional
Mus musculus [6] = assay: Antiosteoporosis activity against ovariectomized ICR mouse assessed as serum phosphorous level at 110.3 nmol/kg, po after 30 mins; type: functional
Mus musculus [7] = assay: Toxicity in ovariectomized ICR mouse assessed as tail bleeding time at 110.3 nmol/kg, po for 90 mins; type: organism-based; settings: in vivo, 1.5 h
Mus musculus [8] = assay: Antiosteoporosis activity against ovariectomized ICR mouse assessed as serum ALP activity at 110.3 nmol/kg, po after 30 mins; type: functional
Mus musculus [9] = assay: Antiosteoporosis activity against ovariectomized ICR mouse assessed as femur calcium content at 110.3 nmol/kg, po after 30 mins; type: functional
Mus musculus [10] = assay: Antiosteoporosis activity against ovariectomized ICR mouse assessed as mineral content at 110.3 nmol/kg, po after 30 mins; type: functional
Mus musculus [11] = assay: Toxicity in ovariectomized ICR mouse assessed as effect on lung weight at 110.3 nmol/kg, po after 4 weeks; type: organism-based; settings: in vivo, 672 h
Mus musculus [12] = assay: Toxicity in ovariectomized ICR mouse assessed as change in uterine weight at 110.3 nmol/kg, po after 4 weeks; type: organism-based; settings: in vivo, 672 h
Mus musculus [13] = assay: Antiosteoporosis activity against ovariectomized ICR mouse assessed as femur phosphorous content at 110.3 nmol/kg, po after 30 mins; type: functional
Mus musculus [14] = assay: Toxicity in ovariectomized ICR mouse assessed as tail bleeding time at 110.3 nmol/kg, po for 30 mins; type: organism-based; settings: in vivo, 0.5 h
Mus musculus [15] = assay: Toxicity in ovariectomized ICR mouse assessed as effect on kidney weight at 110.3 nmol/kg, po after 4 weeks; type: organism-based; settings: in vivo, 672 h
Mus musculus [16] = assay: Antiosteoporosis activity against ovariectomized ICR mouse assessed as femur length at 110.3 nmol/kg, po after 30 mins; type: functional
Mus musculus [17] = assay: Toxicity in ovariectomized ICR mouse assessed as effect on liver weight at 110.3 nmol/kg, po after 4 weeks; type: organism-based; settings: in vivo, 672 h

| SMILES | Activity (Mus musculus [1]) | Activity (Mus musculus [2]) | Activity (Mus musculus [3]) | Activity (Mus musculus [4]) | Activity (Mus musculus [5]) | Activity (Mus musculus [6]) | Activity (Mus musculus [7]) | Activity (Mus musculus [8]) | Activity (Mus musculus [9]) | Activity (Mus musculus [10]) | Activity (Mus musculus [11]) | Activity (Mus musculus [12]) | Activity (Mus musculus [13]) | Activity (Mus musculus [14]) | Activity (Mus musculus [15]) | Activity (Mus musculus [16]) | Activity (Mus musculus [17]) |
| --- | --- | --- | --- | --- | --- | --- | --- | --- | --- | --- | --- | --- | --- | --- | --- | --- | --- |
| C[C@]12CC[C@@H]3c4ccc(OCC(=O)N[C@@H](CCCNC(=N)N)C(=O)NCC(=O)N[C@@H](CC(=O)O)C(=O)N[C@@H](CO)C(=O)N[C@@H](CCCNC(=N)N)C(=O)NCC(=O)N[C@@H](CC(=O)O)C(=O)N[C@@H](CO)C(=O)O)cc4CC[C@H]3[C@@H]1CCC2=O (X1-RGDSRGDS-OH) | 3.08 mM | Non-toxic | Non-toxic | 55.9 mg | 35.78 mg | 2.96 mM | 516 s | 13.8 U/L | 59.95% | 0.62% | Non-toxic | 0.058 g | 21.76% | 588 s | Non-toxic | 1.67 cm | Non-toxic |
| CC(C)[C@H](NC(=O)[C@H](CC(=O)O)NC(=O)CNC(=O)[C@H](CCCNC(=N)N)NC(=O)[C@@H](NC(=O)[C@H](CC(=O)O)NC(=O)CNC(=O)[C@H](CCCNC(=N)N)NC(=O)COc1ccc2c(c1)CC[C@@H]1[C@@H]2CC[C@]2(C)C(=O)CC[C@@H]12)C(C)C)C(=O)O (X1-RGDVRGDV-OH) | 3 mM | Non-toxic | Non-toxic | 55.39 mg | 35.29 mg | 3.22 mM | 514 s | 13.27 U/L | 60.5% | 0.62% | Non-toxic | 0.059 g | 21.84% | 582 s | Non-toxic | 1.66 cm | Non-toxic |
| C[C@]12CC[C@@H]3c4ccc(OCC(=O)N[C@@H](CCCNC(=N)N)C(=O)NCC(=O)N[C@@H](CC(=O)O)C(=O)N[C@@H](CO)C(=O)O)cc4CC[C@H]3[C@@H]1CCC2=O (X1-RGDS-OH) | 3.33 mM |  |  | 54.29 mg | 34.38 mg | 2.98 mM | 568 s | 16.62 U/L | 57.76% | 0.6% |  | 0.069 g | 20.44% | 579 s |  | 1.65 cm |  |
| C[C@]12CC[C@@H]3c4ccc(OCC(=O)N[C@@H](CCCNC(=N)N)C(=O)NCC(=O)N[C@@H](CC(=O)O)C(=O)N[C@@H](Cc5ccccc5)C(=O)N[C@@H](CCCNC(=N)N)C(=O)NCC(=O)N[C@@H](CC(=O)O)C(=O)N[C@@H](Cc5ccccc5)C(=O)O)cc4CC[C@H]3[C@@H]1CCC2=O (X1-RGDFRGDF-OH) | 3.15 mM | Non-toxic | Non-toxic | 55.26 mg | 35.24 mg | 3.01 mM | 574 s | 15.06 U/L | 59.92% | 0.61% | Non-toxic | 0.051 g | 20.33% | 579 s | Non-toxic | 1.64 cm | Non-toxic |
| C[C@]12CC[C@@H]3c4ccc(OCC(=O)N[C@@H](CCCNC(=N)N)C(=O)NCC(=O)N[C@@H](CC(=O)O)C(=O)N[C@@H](Cc5ccccc5)C(=O)O)cc4CC[C@H]3[C@@H]1CCC2=O (X1-RGDF-OH) | 3.44 mM |  |  | 53.99 mg | 33.85 mg | 3.17 mM | 576 s | 16.42 U/L | 56.96% | 0.59% |  | 0.06 g | 20.32% | 581 s |  | 1.65 cm |  |
| CC(C)[C@H](NC(=O)[C@H](CC(=O)O)NC(=O)CNC(=O)[C@H](CCCNC(=N)N)NC(=O)CCC(=O)O[C@H]1CC[C@H]2[C@@H]3CCc4cc(O)ccc4[C@H]3CC[C@]12C)C(=O)O ({Succinyl(O17-estradiol)}-RGDV-OH) | 3.36 mM |  |  |  | 34.7 mg |  | 560 s | 22.96 U/L |  | 0.61% |  | 0.064 g |  | 551 s |  | 1.67 cm |  |
| C[C@]12CC[C@@H]3c4ccc(O)cc4CC[C@H]3[C@@H]1CC[C@@H]2O [ESTRADIOL] | 3.34 mM |  |  |  |  |  | 441 s | 27.22 U/L |  | 0.61% |  | 0.108 g |  | 417 s |  | 1.64 cm |  |
| C[C@]12CC[C@@H]3c4ccc(OCC(=O)N[C@@H](CCCNC(=N)N)C(=O)NCC(=O)N[C@@H](CC(=O)O)C(=O)N[C@@H](Cc5ccccc5)C(=O)O)cc4CC[C@H]3[C@@H]1CC[C@@H]2O ({Acetyl(estradiol-3-yloxy)}-RGDF-OH) | 3.34 mM |  |  |  | 33.99 mg |  | 560 s | 25.42 U/L |  | 0.6% |  | 0.067 g |  | 557 s |  | 1.67 cm |  |
| C[C@]12CC[C@@H]3c4ccc(O)cc4CC[C@H]3[C@@H]1CC[C@@H]2OC(=O)CCC(=O)N[C@@H](CCCNC(=N)N)C(=O)NCC(=O)N[C@@H](CC(=O)O)C(=O)N[C@@H](CO)C(=O)O ({Succinyl(O17-estradiol)}-RGDS-OH) | 3.35 mM |  |  | 53.98 mg |  |  | 561 s | 23.93 U/L | 59.14% | 0.6% |  | 0.063 g |  | 575 s |  | 1.66 cm |  |
| CC(C)[C@H](NC(=O)[C@H](CC(=O)O)NC(=O)CNC(=O)[C@H](CCCNC(=N)N)NC(=O)COc1ccc2c(c1)CC[C@@H]1[C@@H]2CC[C@]2(C)C(=O)CC[C@@H]12)C(=O)O (X1-RGDV-OH) | 3.33 mM |  |  | 54.12 mg | 33.99 mg | 2.96 mM | 571 s | 17.42 U/L | 57.24% | 0.61% |  | 0.066 g | 20.08% | 563 s |  | 1.66 cm |  |
| C[C@]12CC[C@@H]3c4ccc(OCC(=O)N[C@@H](CCCNC(=N)N)C(=O)NCC(=O)N[C@@H](CC(=O)O)C(=O)N[C@@H](CO)C(=O)O)cc4CC[C@H]3[C@@H]1CC[C@@H]2O ({Acetyl(estradiol-3-yloxy)}-RGDS-OH) | 3.33 mM |  |  |  |  |  | 577 s | 26.62 U/L |  | 0.6% |  | 0.064 g |  | 582 s |  | 1.65 cm |  |
| C[C@]12CC[C@@H]3c4ccc(O)cc4CC[C@H]3[C@@H]1CC[C@@H]2OC(=O)CCC(=O)N[C@@H](CCCNC(=N)N)C(=O)NCC(=O)N[C@@H](CC(=O)O)C(=O)N[C@@H](Cc1ccccc1)C(=O)O ({Succinyl(O17-estradiol)}-RGDF-OH) | 3.34 mM |  |  |  | 34.87 mg |  | 568 s | 23.18 U/L | 58.06% | 0.61% |  | 0.06 g |  | 576 s |  |  |  |
| C[C@]12CC[C@@H]3c4ccc(O)cc4CC[C@H]3[C@@H]1CCC2=O [ESTRONE] | 3.35 mM |  |  | 53.03 mg | 32.08 mg | 3.13 mM | 433 s | 27.97 U/L | 56.2% | 0.61% |  | 0.114 g | 19.11% | 411 s |  | 1.65 cm |  |
| CC(C)[C@H](NC(=O)[C@H](CC(=O)O)NC(=O)CNC(=O)[C@H](CCCNC(=N)N)NC(=O)COc1ccc2c(c1)CC[C@@H]1[C@@H]2CC[C@]2(C)[C@@H](O)CC[C@@H]12)C(=O)O ({Acetyl(estradiol-3-yloxy)}-RGDV-OH) | 3.32 mM |  |  |  | 34.29 mg |  | 577 s | 26.01 U/L |  | 0.61% |  | 0.064 g |  | 569 s |  |  |  |
